The pIC50 is −log10 of the IC50, conventionally taken in molar units.

The test system of test [1] is Kumulus-Eizell Komplexe. The experiment in a line: cumulus expansion test in vitro. In kind it is cell-based, Mäusen (Stamm : CD1 (ICR)). As to conditions: competing with PGE2. An excerpt: Im prä-ovulatorischen antralen Follikel ist die Eizelle von Kumulus Zellen umgeben, die einen dichten Zellkranz um die Eizelle bilden. Nach dem LH-Peak (Lutenisierendes Hormon) wird eine Reihe von Prozessen aktiviert, die eine starke morphologische Veränderung dieses Zellkranzes aus Kumulus Zellen zur Folge hat. Hierbei bilden die Kumulus Zellen eine extrazelluläre Matrix, die zur sogenannten Kumulus Expansion führt (Vanderhyden et al. Dev Biol. 1990 Aug;140(2):307-317). Diese Kumulus Expansion ist ein wichtiger Bestandteil des ovulatorischen Prozesses und der nachfolgenden Möglichkeit zur Fertilisation. Bei der Kumulus Expansion sind Prostaglandine und hier das Prostaglandin E2, dessen Synthese durch den LH-Peak induziert wird, von entscheidender Bedeutung. Prostanoid EP2 Knock-out Mäuse (Hizaki et al. Proc Natl Acad Sci U S A. 1999 Aug 31 ;96(18):10501-6.) zeigen eine deutlich verminderte Kumulus Expansion und starke Subfertilität, was die Bedeutung des Prostanoid EP2-Rezeptors für diesen Prozess demonstriert.
2.2. Kumulus Expansions Test in vitro
In immaturen weiblichen Mäusen (Stamm : CD1 (ICR) von Charles River) wurde in einem Alter von 14 - 18 Tagen die Follikulogenese durch eine einmalige Gabe (intraperitoneal) von 10 I.E. PMSG (Pregnant Mare Serum Gonadotropine; Sigma G-4877, Lot 68H0909) induziert. […]

Test [2] deals with T1, EP2-Subtyp des humanen PGE2-Rezeptors (Homo sapiens, UniProt P43116).
T1 construct: host or cells: cells in a culture plate
Briefly: cAMP antagonism test (HTRF cAMP detection, in presence of PGE2). In kind it is cell-based. The note with it: cAMP Antagonismustest; PGE2 as agonist; read-out: Antagonismus [IC50. The text has this: 1. Nachweis des Antagonismus des humanen Prostaglandin E2 (Subtyp EP2) Rezeptorsignals
(§1) Die Bindung von PGE2 an den EP2-Subtyp des humanen PGE2-Rezeptors induziert die Aktivierung membranständiger Adenylatzyklasen und führt zur Bildung von cAMP. In Gegenwart des Phosphodiesteraseinhibitors IBMX wird das durch diese Stimulation akkumulierte und mittels Zell-Lyse freigesetzte cAMP in einem kompetitiven Nachweisverfahren eingesetzt. In diesem Test konkurriert das cAMP im Lysat mit cAMP-XL665 um die Bindung eines Eu-Kryptat markierten Anti-cAMP Antikörpers.
(§2) Dabei entsteht in Abwesenheit von zellulärem cAMP ein maximales Signal, welches auf der Kopplung dieses Antikörpers an das cAMP-XL665 Molekül beruht. Dadurch entsteht nach Anregung bei 337 nm ein auf FRET (fluorescence resonance energy transfer) basierendes, langanhaltendes Emissionssignal bei 665 nm (und bei 620 nm). Beide Signale werden in einem geeigneten Messgerät zeitlich versetzt, d.h. nach Abklingen der Hintergrundsfluoreszenz gemessen. Jegliche Erhöhung des durch Prostglandin-E2-Gabe bedingten niedrigen FRET-Signals (gemessen als Well-Ratio-Veränderung = Emission665nm/Emission620nm * 10000) zeigt die Wirkung von Antagonisten.
1.2.1. Test auf Antagonismus (Angaben pro Vertiefung einer 384-Loch-Platte):
Die in einer Testplatte und 30 % DMSO vorgelegten Substanzlösungen (0.75 µl) wurden in 16 µl einer KRSB+IBMX-Stimulationslösung gelöst (1 X Krebs-Ringer Bicarbonate Buffer; Sigma-Aldrich # K-4002; inklusive 750 µM 3-Isobutyl-1-methylxanthine Sigma-Aldrich # I-7018), anschließend wurden 15 µl davon in eine medienfreie Zellkulturplatte überführt, die kurz zuvor mit KRSB gewaschen worden war.
Nach einer 30-minütigen Vorinkubation bei Raumtemperatur (RT) wurden 5 µl einer 4xPGE2 Lösung (11 nM) zugegeben und in Gegenwart des Agonisten für weitere 60 min bei RT inkubiert (Volumen: ∼ 20 µl), bevor die Reaktion anschließend durch Zugabe von 5 µl Lysispuffer gestoppt und für weitere 20 min bei RT inkubiert wird (Volumen: ∼ 25 µl). Das Zell-Lysat wurde anschließend in eine Messplatte überführt und entsprechend den Herstellerangaben (cyclic AMP kit Cisbio International # 62AMPPEC) gemessen.

In test [3] the target is T1, EP2-Subtyp des humanen PGE2-Rezeptors. The experiment in a line: cellular agonism test (HTRF cAMP detection, without PGE2). In kind it is cell-based.
Text: as §1, §2
1.2.2. Test auf Agonismus (Angaben pro Vertiefung einer 384-Loch-Platte): […]

pIC50: −log10 of the molar value.

T1 sequence (P43116 whole entry): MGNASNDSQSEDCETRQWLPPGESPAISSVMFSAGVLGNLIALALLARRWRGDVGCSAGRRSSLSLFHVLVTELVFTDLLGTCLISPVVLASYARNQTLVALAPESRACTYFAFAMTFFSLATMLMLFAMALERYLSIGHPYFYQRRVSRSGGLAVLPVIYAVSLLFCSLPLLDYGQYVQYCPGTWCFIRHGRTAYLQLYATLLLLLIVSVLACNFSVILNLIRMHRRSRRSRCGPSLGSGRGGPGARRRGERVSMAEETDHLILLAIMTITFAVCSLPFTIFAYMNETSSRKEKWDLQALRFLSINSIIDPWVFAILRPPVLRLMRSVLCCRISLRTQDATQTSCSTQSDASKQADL

Regarding `CC(C)Oc1ccc2c(=O)c3cc(C(=O)O)ccc3oc2c1` [AH 6809, reference compound], the “Unterdrückung der Kumulus Expansion” value in test [1] (100 - 200 µM) is reported as “ca. 30%”.

Regarding `Cc1[nH]c2c(F)ccc(C)c2c1CCNC(=O)c1cc2cc(C(=O)NCCC(N)=O)ccc2[nH]1` [Beispiel 5, 1H-Indol-2,5-dicarbonsäure 5-[(2-carbamoyl-ethyl)-amid] 2-{[2-(7-fluor-2,4-dimethyl-1H-indol-3-yl)-ethyl]-amid}], the negative-log IC50 (pIC50) in test [2] was 6.53.

`Cc1[nH]c2c(F)ccc(C)c2c1CCNC(=O)c1cc2ccc(C(=O)NCC(N)=O)cc2[nH]1` [Beispiel 6, 1H-Indol-2,6-dicarbonsäure 6-carbamoylmethyl-amid 2-{[2-(7-fluor-2,4-dimethyl-1H-indol-3-yl)-ethyl]-amid}]: in test [2], the pIC50 was 7.66. In addition, the “Wirkung im zellulären Agonismustest” value in test [3] is reported as “keine Inhibition”. In test [1] (5 µM), the “Unterdrückung der Kumulus Expansion” value is listed as “ca. 67%”.

As to `Cc1[nH]c2c(F)ccc(C)c2c1CCNC(=O)c1cc2ccc(C(=O)NCC(C)(C)CO)cc2[nH]1` [Beispiel 8, 1H-Indol-2,6-dicarbonsäure 2-{[2-(7-fluor-2,4-dimethyl-1H-indol-3-yl)-ethyl]-amid} 6-[(3-hydroxy-2,2-dimethyl-propyl)-amid]], the pIC50 in test [2] is 6.91.

On to `Cc1[nH]c2c(F)ccc(C)c2c1CCNC(=O)c1cc2ccc(C(=O)NCCC(N)=O)cc2[nH]1` [Beispiel 10, 1H-Indol-2,6-dicarbonsäure 6-[(2-carbamoyl-ethyl)-amid] 2-{[2-(7-fluor-2,4-dimethyl-1H-indol-3-yl)-ethyl]-amid}], for which the pIC50 in test [2] is 7.34.

For the origin of these results see patent EP2149554A1, “Indolyamides as modulators for an EP2 receptor” (Bayer Schering Pharma Aktiengesellschaft, priority 2008, dated 2010).
